# Laboratory results published in ChEMBL document CHEMBL1177733, “Mayamycin, a cytotoxic polyketide from a Streptomyces strain isolated from the marine sponge Halichondria panicea” (J Nat Prod, 2010).
# Experiments:
# Dermabacter hominis = assay: Antibacterial activity against Dermabacter hominis DSM 7083 after 24 hrs by microtiter plate assay; settings: DSM 7083, 24 h
# [1] = system: Brevibacterium epidermidis; assay: Antibacterial activity against Brevibacterium epidermidis DSM 20660 after 14-16 hrs by microtiter plate assay; settings: DSM 20660, 14-16 h
# Staphylococcus aureus = assay: Antibacterial activity against Staphylococcus aureus ATCC 12600 after 48 hrs by microtiter plate assay; type: functional, organism-based; settings: ATCC 12600, 48 h
# HT-29 = assay: Cytotoxicity against human HT-29 cells after 24 hrs by CellTiter-BlueCell viability assay; type: functional, cell-based; settings: HT-29, 24 h
# [2] = Cytotoxicity against human MAXF 401NL cells after 24 hrs by propidium iodide monolayer assay
# [3] = Cytotoxicity against human RXF 486L cells by modified propidium iodide monolayer assay
# [4] = Cytotoxicity against human PAXF 1657L cells by modified propidium iodide monolayer assay
# [5] = Cytotoxicity against human MEXF 462NL cells by modified propidium iodide monolayer assay
# [6] = Cytotoxicity against human LXFL529 cells after 24 hrs by propidium iodide monolayer assay; settings: LXFL 529, 24 h
# [7] = Cytotoxicity against human GXF251L cells after 24 hrs by propidium iodide monolayer assay; settings: GXF 251L
# Bacillus subtilis = assay: Antibacterial activity against Bacillus subtilis DSM 347 after 14-16 hrs by microtiter plate assay; settings: DSM 347, 14-16 h
# Pseudomonas aeruginosa = assay: Antibacterial activity against Pseudomonas aeruginosa DSM 50071 after 14-16 hrs by microtiter plate assay; settings: DSM 50071, 14-16 h
# Mammaliicoccus lentus = assay: Antibacterial activity against Staphylococcus lentus DSM 6672 after 14-16 hrs by microtiter plate assay; settings: DSM 6672, 14-16 h
# Cutibacterium acnes = assay: Antibacterial activity against Propionibacterium acnes DSM 1897 after 48 hrs by microtiter plate assay; type: functional, organism-based; settings: DSM 1897, 48 h
# Xanthomonas campestris = assay: Antibacterial activity against Xanthomonas campestris DSM 2405 after 14-16 hrs by microtiter plate assay; settings: DSM 2405, 14-16 h
compound,measurement,setting,value
CN(C)[C@@H]1C(O)=C(C(N)=O)C(=O)[C@@]2(O)C(O)=C3C(=O)c4c(O)cccc4[C@@](C)(O)[C@H]3C[C@@H]12 [TETRACYCLINE],IC50,Dermabacter hominis,1.2 µM
same,IC50,[1],13.9 µM
COc1c(N2C[C@@H]3CCCN[C@@H]3C2)c(F)cc2c(=O)c(C(=O)O)cn(C3CC3)c12 [MOXIFLOXACIN],IC50,Staphylococcus aureus,7.5 µM
CC/C(=C(\c1ccccc1)c1ccc(OCCN(C)C)cc1)c1ccccc1 [TAMOXIFEN],IC50,HT-29,38.6 µM
COc1cccc2c1C(=O)c1c(O)c3c(c(O)c1C2=O)C[C@@](O)(C(=O)CO)C[C@@H]3O[C@H]1C[C@H](N)[C@H](O)[C@H](C)O1 [DOXORUBICIN],IC50,[2],< 0.052 µM
same,IC50,[3],≤ 0.052 µM
same,IC50,[4],< 0.052 µM
same,IC50,[5],< 0.052 µM
same,IC50,[6],< 0.052 µM
same,IC50,[7],< 0.052 µM
O=C(N[C@H](CO)[C@H](O)c1ccc([N+](=O)[O-])cc1)C(Cl)Cl [CHLORAMPHENICOL],IC50,Bacillus subtilis,9 µM
same,IC50,Pseudomonas aeruginosa,27.3 µM
same,IC50,Mammaliicoccus lentus,2.3 µM
same,IC50,Cutibacterium acnes,1 µM
same,IC50,Xanthomonas campestris,3.6 µM
